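GI50: concentration for 50% inhibition of growth. At the TGI there is no net growth.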
What was measured:
Assay in all cases: NCI tumour cell line growth inhibition, 384-well format
U251 glioblastoma = tested on: U251 glioblastoma
NCI-H322M lung = tested on: NCI-H322M lung
SNB-75 CNS = tested on: SNB-75 CNS
LOX IMVI melanoma = tested on: LOX IMVI melanoma
SK-OV-3 ovarian = tested on: SK-OV-3 ovarian
A498 renal = tested on: A498 renal
HOP-92 NSCLC = tested on: HOP-92 NSCLC
MDA-MB-435 melanoma = tested on: MDA-MB-435 melanoma
MALME-3M melanoma = tested on: MALME-3M melanoma
SF-268 CNS = tested on: SF-268 CNS
HL-60(TB) leukemia = tested on: HL-60(TB) leukemia
MCF7 breast = tested on: MCF7 breast
UO-31 renal = tested on: UO-31 renal
SW-620 colon = tested on: SW-620 colon
786-0 renal = tested on: 786-0 renal
KM12 colon = tested on: KM12 colon
SF-295 CNS = tested on: SF-295 CNS
IGROV1 ovarian = tested on: IGROV1 ovarian
OVCAR-4 ovarian = tested on: OVCAR-4 ovarian
M14 melanoma = tested on: M14 melanoma
HCC-2998 colon = tested on: HCC-2998 colon
TK-10 renal = tested on: TK-10 renal
T-47D breast = tested on: T-47D breast
MDA-MB-468 breast = tested on: MDA-MB-468 breast
DU-145 prostate = tested on: DU-145 prostate
ACHN renal = tested on: ACHN renal
SNB-19 CNS = tested on: SNB-19 CNS
CAKI-1 renal = tested on: CAKI-1 renal
NCI-H522 lung = tested on: NCI-H522 lung
HCT-116 colon = tested on: HCT-116 colon
NCI-H226 lung = tested on: NCI-H226 lung
HT29 colon = tested on: HT29 colon
OVCAR-3 ovarian = tested on: OVCAR-3 ovarian
SN12C renal = tested on: SN12C renal
NCI-H23 lung = tested on: NCI-H23 lung
NCI-H460 NSCLC = tested on: NCI-H460 NSCLC
HCT-15 colon = tested on: HCT-15 colon
SF-539 CNS = tested on: SF-539 CNS
PC-3 prostate = tested on: PC-3 prostate
MDA-MB-231 breast = tested on: MDA-MB-231 breast
RPMI-8226 leukemia = tested on: RPMI-8226 leukemia
A549 NSCLC = tested on: A549 NSCLC
HS 578T breast = tested on: HS 578T breast
MOLT-4 leukemia = tested on: MOLT-4 leukemia
EKVX NSCLC = tested on: EKVX NSCLC
COLO 205 colon = tested on: COLO 205 colon
CCRF-CEM leukemia = tested on: CCRF-CEM leukemia
UACC-62 melanoma = tested on: UACC-62 melanoma
SR leukemia = tested on: SR leukemia
SK-MEL-5 melanoma = tested on: SK-MEL-5 melanoma
K-562 leukemia = tested on: K-562 leukemia
HOP-62 NSCLC = tested on: HOP-62 NSCLC
SK-MEL-28 melanoma = tested on: SK-MEL-28 melanoma
BT-549 breast = tested on: BT-549 breast
OVCAR-8 ovarian = tested on: OVCAR-8 ovarian
RXF 393 renal = tested on: RXF 393 renal
UACC-257 melanoma = tested on: UACC-257 melanoma
NCI/ADR-RES ovarian = tested on: NCI/ADR-RES ovarian

## CNc1ncc2cc(-c3cc(NC(=O)NCCC(C)(C)C)c(F)cc3C)c(C)nc2n1
U251 glioblastoma
  GI50: 506 nM
  TGI: 13 µM
NCI-H322M lung
  GI50: 318 nM
  TGI: 12.9 µM
SNB-75 CNS
  GI50: 361 nM
  TGI: 15.4 µM
LOX IMVI melanoma
  GI50: 27.7 nM
  TGI: 0.237 µM
SK-OV-3 ovarian
  GI50: 303 nM
  TGI: 4160 nM
A498 renal
  GI50: 294 nM
  TGI: > 100000 nM
HOP-92 NSCLC
  GI50: 166 nM
  TGI: 409 nM
MDA-MB-435 melanoma
  GI50: 33.6 nM
  TGI: 27.3 µM
MALME-3M melanoma
  GI50: < 10 nM
SF-268 CNS
  GI50: 1090 nM
  TGI: 16.1 µM
HL-60(TB) leukemia
  GI50: 17.1 nM
  TGI: 130 nM
MCF7 breast
  GI50: 7.04 µM
  TGI: > 100 µM
UO-31 renal
  GI50: 210 nM
  TGI: 23.6 µM
SW-620 colon
  GI50: 334 nM
  TGI: 15.4 µM
786-0 renal
  GI50: 676 nM
  TGI: 39.1 µM
KM12 colon
  GI50: 501 nM
  TGI: 38.3 µM
SF-295 CNS
  GI50: 1200 nM
  TGI: > 100000 nM
IGROV1 ovarian
  GI50: 157 nM
  TGI: 1050 nM
OVCAR-4 ovarian
  GI50: 18.3 µM
  TGI: > 100 µM
M14 melanoma
  GI50: < 10 nM
  TGI: 36.4 nM
HCC-2998 colon
  GI50: 127 nM
  TGI: 11.5 µM
TK-10 renal
  GI50: 599 nM
  TGI: 4.67 µM
T-47D breast
  GI50: 2400 nM
  TGI: 37.7 µM
MDA-MB-468 breast
  GI50: 12.8 µM
  TGI: 35.2 µM
DU-145 prostate
  GI50: 652 nM
  TGI: 32.4 µM
ACHN renal
  GI50: 250 nM
  TGI: 19.1 µM
SNB-19 CNS
  GI50: 1.55 µM
  TGI: 71 µM
CAKI-1 renal
  GI50: 134 nM
  TGI: 1230 nM
NCI-H522 lung
  GI50: 670 nM
  TGI: 9.38 µM
HCT-116 colon
  GI50: 58.5 nM
  TGI: 916 nM
NCI-H226 lung
  GI50: 299 nM
  TGI: 15.7 µM
HT29 colon
  GI50: 26.8 nM
  TGI: 13.1 µM
OVCAR-3 ovarian
  GI50: 1230 nM
  TGI: 55.8 µM
SN12C renal
  GI50: 173 nM
  TGI: 0.889 µM
NCI-H23 lung
  GI50: 47.2 nM
  TGI: 443 nM
NCI-H460 NSCLC
  GI50: 302 nM
  TGI: 13.8 µM
HCT-15 colon
  GI50: 525 nM
  TGI: 38.6 µM
SF-539 CNS
  GI50: 1750 nM
  TGI: 19.2 µM
PC-3 prostate
  GI50: 13.3 µM
  TGI: > 100 µM
MDA-MB-231 breast
  GI50: 47.9 nM
  TGI: 397 nM
RPMI-8226 leukemia
  GI50: 162 nM
  TGI: 585 nM
A549 NSCLC
  GI50: 711 nM
  TGI: 15.2 µM
HS 578T breast
  GI50: 354 nM
  TGI: 7.89 µM
MOLT-4 leukemia
  GI50: 360 nM
  TGI: 15.4 µM
EKVX NSCLC
  GI50: 2090 nM
  TGI: 82.4 µM
COLO 205 colon
  GI50: 14.4 nM
  TGI: 543 nM
CCRF-CEM leukemia
  GI50: 495 nM
  TGI: 18.3 µM
UACC-62 melanoma
  GI50: < 10 nM
  TGI: 51.7 nM
SR leukemia
  GI50: 181 nM
  TGI: 385 nM
SK-MEL-5 melanoma
  GI50: 38.2 nM
  TGI: 4.2 µM
K-562 leukemia
  GI50: 126 nM
  TGI: 284 nM
HOP-62 NSCLC
  GI50: 367 nM
  TGI: 15.9 µM
SK-MEL-28 melanoma
  GI50: < 10 nM
  TGI: 0.0359 µM
BT-549 breast
  GI50: 1260 nM
  TGI: 19.9 µM
OVCAR-8 ovarian
  GI50: 489 nM
  TGI: 48.9 µM
RXF 393 renal
  GI50: 440 nM
  TGI: 10.5 µM
UACC-257 melanoma
  GI50: 16.6 nM
  TGI: 119 nM
NCI/ADR-RES ovarian
  GI50: 3080 nM
  TGI: 83.7 µM

## CS(=O)(=O)N1CCc2c(-c3cnc(N)nc3)nc(N3CCOCC3)nc21
U251 glioblastoma
  GI50: 2640 nM
  TGI: > 100 µM
NCI-H322M lung
  GI50: 426 nM
  TGI: 9.38 µM
SNB-75 CNS
  GI50: 391 nM
  TGI: 3.6 µM
LOX IMVI melanoma
  GI50: 1010 nM
  TGI: 28.4 µM
SK-OV-3 ovarian
  GI50: 170 nM
  TGI: 1360 nM
A498 renal
  GI50: 428 nM
  TGI: 2730 nM
HOP-92 NSCLC
  GI50: 248 nM
  TGI: 2590 nM
MDA-MB-435 melanoma
  GI50: 1490 nM
  TGI: 94.5 µM
MALME-3M melanoma
  GI50: 281 nM
  TGI: 2180 nM
SF-268 CNS
  GI50: 1700 nM
  TGI: > 100 µM
HL-60(TB) leukemia
  GI50: 192 nM
  TGI: > 100000 nM
MCF7 breast
  GI50: 0.0473 µM
  TGI: > 100 µM
UO-31 renal
  GI50: 489 nM
  TGI: 7.6 µM
SW-620 colon
  GI50: 2640 nM
  TGI: > 100 µM
786-0 renal
  GI50: 1710 nM
  TGI: 17.8 µM
KM12 colon
  GI50: 2230 nM
  TGI: > 100 µM
SF-295 CNS
  GI50: 537 nM
  TGI: 2990 nM
IGROV1 ovarian
  GI50: 123 nM
  TGI: 568 nM
OVCAR-4 ovarian
  GI50: 1.65 µM
  TGI: 7.87 µM
M14 melanoma
  GI50: 932 nM
  TGI: > 100000 nM
HCC-2998 colon
  GI50: 1420 nM
  TGI: > 100 µM
TK-10 renal
  GI50: 421 nM
  TGI: 4.97 µM
T-47D breast
  GI50: 31.7 nM
  TGI: 0.396 µM
MDA-MB-468 breast
  GI50: 0.391 µM
  TGI: 2.32 µM
DU-145 prostate
  GI50: 661 nM
  TGI: 8.57 µM
ACHN renal
  GI50: 719 nM
  TGI: 15.9 µM
SNB-19 CNS
  GI50: 5.41 µM
  TGI: > 100 µM
CAKI-1 renal
  GI50: 335 nM
  TGI: 3510 nM
NCI-H522 lung
  GI50: 710 nM
  TGI: > 100 µM
HCT-116 colon
  GI50: 1060 nM
  TGI: > 100000 nM
NCI-H226 lung
  GI50: 380 nM
  TGI: 3.94 µM
HT29 colon
  GI50: 334 nM
  TGI: > 100 µM
OVCAR-3 ovarian
  GI50: 752 nM
  TGI: 6.66 µM
SN12C renal
  GI50: 433 nM
  TGI: 5.54 µM
NCI-H23 lung
  GI50: 826 nM
  TGI: > 100000 nM
NCI-H460 NSCLC
  GI50: 256 nM
  TGI: 31.3 µM
HCT-15 colon
  GI50: 445 nM
  TGI: > 100 µM
SF-539 CNS
  GI50: 1120 nM
  TGI: 14.1 µM
PC-3 prostate
  GI50: 0.34 µM
  TGI: 4.45 µM
MDA-MB-231 breast
  GI50: 900 nM
  TGI: > 100000 nM
RPMI-8226 leukemia
  GI50: 461 nM
  TGI: 2470 nM
A549 NSCLC
  GI50: 806 nM
  TGI: 16.9 µM
HS 578T breast
  GI50: 465 nM
  TGI: 3 µM
MOLT-4 leukemia
  GI50: 252 nM
  TGI: 1.55 µM
EKVX NSCLC
  GI50: 411 nM
  TGI: 3.83 µM
COLO 205 colon
  GI50: 477 nM
  TGI: > 100000 nM
CCRF-CEM leukemia
  GI50: 722 nM
  TGI: 30.4 µM
UACC-62 melanoma
  GI50: 739 nM
  TGI: 4090 nM
SR leukemia
  GI50: 116 nM
  TGI: 551 nM
SK-MEL-5 melanoma
  GI50: 1230 nM
  TGI: 7.9 µM
K-562 leukemia
  GI50: 3650 nM
  TGI: > 100000 nM
HOP-62 NSCLC
  GI50: 1340 nM
  TGI: > 100 µM
SK-MEL-28 melanoma
  GI50: 673 nM
  TGI: 8.52 µM
BT-549 breast
  GI50: 1050 nM
  TGI: 5.67 µM
OVCAR-8 ovarian
  GI50: 1010 nM
  TGI: > 100 µM
RXF 393 renal
  GI50: 1160 nM
  TGI: 4.97 µM
UACC-257 melanoma
  GI50: 2120 nM
  TGI: > 100000 nM
NCI/ADR-RES ovarian
  GI50: 2600 nM
  TGI: > 100 µM

Source: PubChem BioAssay (NCI)
